Test results: PubChem BioAssay AID2060510 (Molecular Pharmacology Branch, DTP, NCI, 2025)

Tested on: 439559-082-T-J2-PDC spheroids viability
Experiment: Anticancer human tumor 439559-082-T-J2-PDC patient-derived colon adenocarcinoma cell line growth inhibition [GQUAD]
Details: for IC50: curve of first compound; for viability, T/C: stronger effect = lower value
Method in brief: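 Multi-cell-type spheroids of tumor cells with HUVEC and mesenchymal stem cells, treated with drug combinations. Concentrations descend in half-log steps from near clinical Cmax, or from 10 microM where Cmax is unknown; viability read-out.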
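Note: spheroids exposed to the agents for 7 days before readout.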
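Throughout, for viability, T/C: percent of luminescence signal in DMSO vehicle wells taken as 100% viability.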

## CC(=O)O[C@H]1C(=O)[C@@]2(C)[C@H]([C@H](OC(=O)c3ccccc3)[C@]3(O)C[C@H](OC(=O)[C@H](O)[C@@H](NC(=O)c4ccccc4)c4ccccc4)C(C)=C1C3(C)C)[C@]1(OC(C)=O)CO[C@@H]1C[C@@H]2O + Cc1cnc(CNC(=O)c2c(=O)c3ccc(N4CCCN(C)CC4)nc3n3c2sc2ccccc23)cn1
Second compound 0.0316 µM
  IC50: 2.82 µM
Second compound 0.1 µM
  IC50: 3.41 µM
Second compound 0.316 µM
  IC50: 3.38 µM
Second compound 1 µM
  IC50: 3.3 µM
Second compound 3.16 µM
  IC50: 5.1 µM
Second compound 10 µM
  IC50: 4.09 µM
Second compound 0.0316 µM, first compound 0.0316 µM
  viability, T/C: 89.9%
Second compound 0.0316 µM, first compound 0.1 µM
  viability, T/C: 89.1%
Second compound 0.0316 µM, first compound 0.316 µM
  viability, T/C: 81.3%
Second compound 0.0316 µM, first compound 1 µM
  viability, T/C: 74.2%
Second compound 0.0316 µM, first compound 3.16 µM
  viability, T/C: 46.1%
Second compound 0.0316 µM, first compound 10 µM
  viability, T/C: 39.6%
Second compound 0.1 µM, first compound 0.0316 µM
  viability, T/C: 97.5%
Second compound 0.1 µM, first compound 0.1 µM
  viability, T/C: 88%
Second compound 0.1 µM, first compound 0.316 µM
  viability, T/C: 70.7%
Second compound 0.1 µM, first compound 1 µM
  viability, T/C: 70%
Second compound 0.1 µM, first compound 3.16 µM
  viability, T/C: 46%
Second compound 0.1 µM, first compound 10 µM
  viability, T/C: 40.5%
Second compound 0.316 µM, first compound 0.0316 µM
  viability, T/C: 90.3%
Second compound 0.316 µM, first compound 0.1 µM
  viability, T/C: 81.2%
Second compound 0.316 µM, first compound 0.316 µM
  viability, T/C: 78.2%
Second compound 0.316 µM, first compound 1 µM
  viability, T/C: 65.8%
Second compound 0.316 µM, first compound 3.16 µM
  viability, T/C: 49.3%
Second compound 0.316 µM, first compound 10 µM
  viability, T/C: 39.2%
Second compound 1 µM, first compound 0.0316 µM
  viability, T/C: 74.7%
Second compound 1 µM, first compound 0.1 µM
  viability, T/C: 72.8%
Second compound 1 µM, first compound 0.316 µM
  viability, T/C: 76.6%
Second compound 1 µM, first compound 1 µM
  viability, T/C: 61.8%
Second compound 1 µM, first compound 3.16 µM
  viability, T/C: 51.8%
Second compound 1 µM, first compound 10 µM
  viability, T/C: 42.9%
Second compound 3.16 µM, first compound 0.0316 µM
  viability, T/C: 62.2%
Second compound 3.16 µM, first compound 0.1 µM
  viability, T/C: 73.1%
Second compound 3.16 µM, first compound 0.316 µM
  viability, T/C: 72.5%
Second compound 3.16 µM, first compound 1 µM
  viability, T/C: 58.9%
Second compound 3.16 µM, first compound 3.16 µM
  viability, T/C: 54.7%
Second compound 3.16 µM, first compound 10 µM
  viability, T/C: 42.4%
Second compound 10 µM, first compound 0.0316 µM
  viability, T/C: 64.8%
Second compound 10 µM, first compound 0.1 µM
  viability, T/C: 57.1%
Second compound 10 µM, first compound 0.316 µM
  viability, T/C: 61.1%
Second compound 10 µM, first compound 1 µM
  viability, T/C: 56%
Second compound 10 µM, first compound 3.16 µM
  viability, T/C: 55.3%
Second compound 10 µM, first compound 10 µM
  viability, T/C: 36.6%
